Where two headings read alike, the source gives them in different places.
Assays:
Assay type in all cases: in vivo
[1] = system: Abutilon theophrasti (ABUTH); assay: Pre-emergence herbicidal action against ABUTH; conditions: Dosage column 320 g/ha (title prints 3200 g/ha); scored visually after about 3 weeks; 100% = plants have died
Text: Seeds of monocotyledonous and dicotyledonous weed plants and crop plants are placed in plastic or organic planting pots and covered with soil. The compounds of the invention, formulated in the form of wettable powders (WP) or as emulsion concentrates (EC), are then applied to the surface of the covering soil as aqueous suspension or emulsion with addition of 0.5% additive at a water application rate equivalent to 600 l/ha. After the treatment, the pots are placed in a greenhouse and kept under good growth conditions for the trial plants. After about 3 weeks, the effect of the preparations is scored visually in comparison with untreated controls as percentages. For example, 100% activity=the plants have died, 0% activity=like control plants.
Tables A1 to A13 below show the effects of selected compounds of the general formula (I) on various harmful plants and at an application rate corresponding to 320 g/ha or lower, which were obtained by the experimental procedure mentioned above. The appendices “a”, “b” and “c” give differentiation by dosage used with otherwise the same harmful plants tested.

[2] = system: Alopecurus myosuroides (ALOMY); assay: Pre-emergence herbicidal action against ALOMY; conditions: scored visually after about 3 weeks, 100% = plants have died
Summary of the method: (§1)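 Herbicide applied to soil before seedling emergence, at 600 l/ha spray volume with 0.5% additive and rates up to 320 g/ha. Evaluation: visual percentage effect, about 3 weeks later, greenhouse-grown pots compared with untreated ones.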

[3] = system: Amaranthus retroflexus (AMARE); assay: Pre-emergence herbicidal action against AMARE; conditions: visual scoring after about 3 weeks vs untreated controls
Summary of the method: as §1

Avena fatua (AVEFA) [4] = assay: Pre-emergence herbicidal action against AVEFA; conditions: visual scoring after about 3 weeks vs untreated controls
Summary of the method: as §1

[5] = system: Echinochloa crus-galli (ECHCG); assay: Pre-emergence herbicidal action against ECHCG
Summary of the method: as §1

Lolium rigidum (LOLRI) [6] = assay: Pre-emergence herbicidal action against LOLRI
Summary of the method: as §1

[7] = system: Matricaria inodora (MATIN); assay: Pre-emergence herbicidal action against MATIN
Summary of the method: as §1

[8] = system: Pharbitis purpurea (PHBPU); assay: Pre-emergence herbicidal action against PHBPU
Summary of the method: as §1

[9] = system: Polygonum convolvulus (POLCO); assay: Pre-emergence herbicidal action against POLCO
Summary of the method: as §1

Setaria viridis (SETVI) [10] = assay: Pre-emergence herbicidal action against SETVI
Summary of the method: as §1

[11] = system: Verconica persica (VERPE); assay: Pre-emergence herbicidal action against VERPE
Summary of the method: as §1

Viola tricolor (VIOTR) [12] = assay: Pre-emergence herbicidal action against VIOTR
Summary of the method: as §1

[13] = system: Abutilon theophrasti (ABUTH); assay: Post-emergence herbicidal action against ABUTH; conditions: visual rating about 3 weeks after treatment vs untreated controls (100% = plants have died, 0% = like control plants)
Summary of the method: (§2)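 Post-emergence greenhouse spray, one-leaf stage, 600 l/ha water plus 0.5% additive; WP or EC formulations; application rates 320 g/ha or lower. Visual % damage vs untreated controls at ~3 weeks.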

[14] = system: Alopecurus myosuroides (ALOMY); assay: Post-emergence herbicidal action against ALOMY; conditions: visual rating about 3 weeks after treatment vs untreated controls (100% = plants have died, 0% = like control plants)
Summary of the method: as §2

Avena fatua (AVEFA) [15] = assay: Post-emergence herbicidal action against AVEFA; conditions: visual rating about 3 weeks after treatment
Summary of the method: as §2

[16] = system: Echinochloa crus-galli (ECHCG); assay: Post-emergence herbicidal action against ECHCG
Summary of the method: as §2

Lolium rigidum (LOLRI) [17] = assay: Post-emergence herbicidal action against LOLRI
Summary of the method: as §2

[18] = system: Pharbitis purpurea (PHBPU); assay: Post-emergence herbicidal action against PHBPU
Summary of the method: as §2

Setaria viridis (SETVI) [19] = assay: Post-emergence herbicidal action against SETVI
Summary of the method: as §2

[20] = system: Verconica persica (VERPE); assay: Post-emergence herbicidal action against VERPE
Summary of the method: as §2

Viola tricolor (VIOTR) [21] = assay: Post-emergence herbicidal action against VIOTR; conditions: 320 g/ha
Summary of the method: as §2

[22] = system: Amaranthus retroflexus (AMARE); assay: Post-emergence herbicidal action against AMARE; conditions: 80 g/ha, visual rating about 3 weeks after treatment vs untreated controls (100% = plants have died, 0% = like control plants)
Summary of the method: as §2

Oryza sativa (ORYSA) = conditions: crop plant compatibility
Summary of the method: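 Test crops were treated 2 to 3 weeks after sowing, once they reached one leaf, by spraying compound in water with 0.5% additive at 600 l/ha. Visual scoring compared them with untreated controls roughly 3 weeks on, and appendices a, b and c denote different doses.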

| Compound | Pre-emergence action against ABUTH [1] | Pre-emergence action against ALOMY ([2]; 80 g/ha) | Pre-emergence action against ALOMY ([2]; 320 g/ha) | Pre-emergence action against AMARE in % ([3]; 80 g/ha) | Pre-emergence action against AMARE in % ([3]; 320 g/ha) | Pre-emergence action against AVEFA in % (Avena fatua (AVEFA) [4]; 320 g/ha) | Pre-emergence action against ECHCG in % ([5]; dosage 320 g/ha) | Pre-emergence action against LOLRI in % (Lolium rigidum (LOLRI) [6]; dosage 80 g/ha) | Pre-emergence action against LOLRI in % (Lolium rigidum (LOLRI) [6]; dosage 320 g/ha) | Pre-emergence action against MATIN in % ([7]; dosage 80 g/ha) | Pre-emergence action against MATIN in % ([7]; dosage 320 g/ha) | Pre-emergence action against PHBPU in % ([8]; dosage 80 g/ha) | Pre-emergence action against PHBPU in % ([8]; dosage 320 g/ha) | Pre-emergence action against POLCO in % ([9]; dosage 80 g/ha) | Pre-emergence action against POLCO in % ([9]; dosage 320 g/ha) | Pre-emergence action against SETVI in % (Setaria viridis (SETVI) [10]; dosage 80 g/ha) | Pre-emergence action against SETVI in % (Setaria viridis (SETVI) [10]; dosage 320 g/ha) | Pre-emergence action against VERPE in % ([11]; dosage 80 g/ha) | Pre-emergence action against VERPE in % ([11]; dosage 320 g/ha) | Pre-emergence action against VIOTR in % (Viola tricolor (VIOTR) [12]; 320 g/ha, Viola tricolor) | also measured |
| --- | --- | --- | --- | --- | --- | --- | --- | --- | --- | --- | --- | --- | --- | --- | --- | --- | --- | --- | --- | --- | --- |
| CCOC(=O)[C@@H](C)Oc1nn(-c2nc(F)ccc2F)c(-c2cncc(F)c2)c1Br [Example I-388] | 90% | 80% | 100% | 90% | 100% | 90% | 100% | 80% | 100% | 90% | 90% | 90% | 90% | 90% | 90% | 90% | 100% | 90% | 100% | 100% | Pre-emergence action against ECHCG in % ([5]; dosage 80 g/ha): 80%; Pre-emergence action against VIOTR in % (Viola tricolor (VIOTR) [12]; dosage 80 g/ha): 100%; Post-emergence action against ABUTH in % ([13]; 320 g/ha): 80%; Post-emergence action against ALOMY in % ([14]; 320 g/ha): 80%; Post-emergence action against AVEFA in % (Avena fatua (AVEFA) [15]; 320 g/ha): 80%; Post-emergence action against ECHCG in % ([16]; dosage 80 g/ha): 90%; Post-emergence action against ECHCG in % ([16]; dosage 320 g/ha): 90%; Post-emergence action against LOLRI in % (Lolium rigidum (LOLRI) [17]; dosage 80 g/ha): 80%; Post-emergence action against LOLRI in % (Lolium rigidum (LOLRI) [17]; dosage 320 g/ha): 80%; Post-emergence action against PHBPU in % ([18]; dosage 80 g/ha): 80%; Post-emergence action against PHBPU in % ([18]; dosage 320 g/ha): 100%; Post-emergence action against SETVI in % (Setaria viridis (SETVI) [19]; dosage 80 g/ha): 90%; Post-emergence action against SETVI in % (Setaria viridis (SETVI) [19]; dosage 320 g/ha): 90%; Post-emergence action against VERPE in % ([20]; 320 g/ha, VERPE): 80%; Post-emergence action against VERPE in % ([20]; dosage 80 g/ha): 80%; Post-emergence action against VIOTR in % (Viola tricolor (VIOTR) [21]): 80% |
| COC(=O)[C@@H](C)Oc1nn(-c2ccccn2)c(-c2cncc(F)c2)c1Br [Example I-83] | 80% | 90% | 100% | 90% | 100% | 90% | 100% | 100% | 100% | 90% | 100% | 80% | 90% | 80% | 90% | 90% | 100% | 90% | 100% | 100% | Pre-emergence action against AVEFA in % (Avena fatua (AVEFA) [4]; 80 g/ha): 80%; Pre-emergence action against VIOTR in % (Viola tricolor (VIOTR) [12]; dosage 80 g/ha): 100%; Post-emergence action against ABUTH in % ([13]; 80 g/ha): 90%; Post-emergence action against ALOMY in % ([14]; 80 g/ha): 100%; Post-emergence action against AMARE in % [22]: 90%; Post-emergence action against AVEFA in % (Avena fatua (AVEFA) [15]; 80 g/ha): 100%; Post-emergence action against ECHCG in % ([16]; dosage 80 g/ha): 90%; Post-emergence action against LOLRI in % (Lolium rigidum (LOLRI) [17]; dosage 80 g/ha): 90%; Post-emergence action against PHBPU in % ([18]; dosage 80 g/ha): 90%; Post-emergence action against SETVI in % (Setaria viridis (SETVI) [19]; dosage 80 g/ha): 90%; Post-emergence action against VERPE in % ([20]; dosage 80 g/ha): 80%; Post-emergence action against ORYSA in % (Oryza sativa (ORYSA); 20 g/ha, effect vs untreated controls): 0%; Post-emergence action against ORYSA in % (Oryza sativa (ORYSA); 80 g/ha, effect in comparison to untreated controls): 20% |

— US20240041042A1, “1-(PYRIDYL)-5-AZINYLPYRAZOLE DERIVATIVES, AND THEIR USE FOR CONTROL OF UNDESIRED PLANT GROWTH” (Bayer Aktiengesellschaft, priority 2020, published 2024)
